Results reported in patent US20040186179A1, “Pharmaceutical composition” (priority 2000, published 2004).
Like-named read-outs stand apart in the source and are kept apart here. Marks after values point to notes of the source that are not given here.

What was measured:
[1] = test system: patients with knee or hip primary osteoarthritis; test: Four week placebo-controlled trial, most pain over the previous 24 hours on a 100 mm VAS; format: in vivo, human
Description: (§1) A four week multicenter randomized double-blind double-dummy placebo-controlled parallel group trial (the study) of four dosing regimens of 5-methyl-2-(2′-chloro-6′-fluoroanilino)phenylacetic acid in patients with knee or hip primary osteoarthritis is performed, using diclofenac as a comparator. Patients are male and female, from 18 to 75 years of age, have a clinical and radiological diagnosis of knee or hip osteoarthritis as defined by the American College of Rheumatology criteria, and have a pain intensity of at least 40 mm (Visual Analog Scale) in the affected joint prior to screening for inclusion in the study. 584 patients are randomized to receive either 50, 100, or 200 mg 5-methyl-2-(2′-chloro-6′-fluoroanilino)phenylacetic acid or 75 mg diclofenac administered orally twice a day, or 400 mg 5-methyl-2-(2′-chloro-6′-fluoroanilino)phenylacetic acid administered orally once a day, or placebo. Drug and placebo are administered in capsules. The comparator, diclofenac, is an extended release tablet that is over-encapsulated to match the placebo. The treatment duration is for 28 days.
(§2) Pharmacokinetics are performed on 52 of the patients who receive 5-methyl-2-(2′-chloro-6′-fluoroanilino)phenylacetic acid. Blood samples are taken at 0, 0.5, 1, 2, 3, 4 and 6 hours following administration of 5-methyl-2-(2′-chloro-6′-fluoroanilino)phenylacetic acid. Plasma concentrations of 5-methyl-2-(2′-chloro-6′-fluoroanilino)phenylacetic acid are measured by an LC/MS assay with a limit of quantitation of 10 ng/ml. Cmax and tmax AUC (0-6) are determined for day 1 and Cmax^ss and tmax^ss AUCτ^ss, Cmin^ss, Cav^ss, peak-trough fluctuation (PTF) and Cl/F at steady state are determined on day 28. The primary efficacy parameter is the most pain experienced over the previous 24 hours on a 100 mm VAS.

[2] = Pharmacokinetics in osteoarthritis patients, plasma concentrations by LC/MS; format: in vivo, human; settings: for Tmax / Cmax / AUC(0-t) / AUC: plasma; for AUC(0-t): read-out: AUC0-6
Description: as §1, §2

[3] = both sexes, human, po, 50 mg, 50 mg bid oral, day 0
[4] = both sexes, human, po, 50 mg, 50 mg bid oral, day 28
[5] = both sexes, human, po, 100 mg, 100 mg bid oral, day 0
[6] = both sexes, human, po, 100 mg, 100 mg bid oral, day 28
[7] = both sexes, human, po, 200 mg, 200 mg bid oral, day 0
[8] = both sexes, human, po, 200 mg, 200 mg bid oral, day 28
[9] = both sexes, human, po, 400 mg, 400 mg qd oral, day 0
[10] = both sexes, human, po, 400 mg, 400 mg qd oral, day 28

O=C(O)Cc1ccccc1Nc1c(Cl)cccc1Cl [diclofenac, reference compound]
VAS pain, change from baseline ([1]; 75 mg twice a day, extended release tablet, day 7, 100 mm VAS): −27.9 mm
VAS pain, change from baseline ([1]; 75 mg twice a day, extended release tablet, day 14, 100 mm VAS): −30.4 (23.0)* mm
VAS pain, change from baseline ([1]; 75 mg twice a day, extended release tablet, day 28, 100 mm VAS): −31.8 mm

Cc1ccc(Nc2c(F)cccc2Cl)c(CC(=O)O)c1 [5-methyl-2-(2′-chloro-6′-fluoroanilino)phenylacetic acid]
CLss/F ([2]; 50 mg bid oral, day 28): 15.0 ± 4.7 L/h
CLss/F ([2]; 100 mg bid oral, day 28): 13.3 ± 3.3 L/h
CLss/F ([2]; 200 mg bid oral, day 28): 15.0 ± 3.5 L/h
CLss/F ([2]; 400 mg qd oral, day 28): 17.4 ± 6.1 L/h
Dose dependence of AUC and Cmax ([2]; 50, 100, 200 mg twice daily and 400 mg once daily, day 28): dose proportional increase
Tmax ([2]; both sexes, human, oral, all dose groups, read-out: tmax, typical): 2 to 3 h
Cmax [2, 3]: 914 ± 340 ng/mL
AUC(0-t) [2, 3]: 2680 ± 960 ng·h/mL
Tmax ([2]; both sexes, human, po, 50 mg, 50 mg bid oral, day 0, read-out: tmax): 2 h
Cmax [2, 4]: 1010 ± 590 ng/mL
AUC(0-t) [2, 4]: 2810 ± 1210 ng·h/mL
Tmax ([2]; both sexes, human, po, 50 mg, 50 mg bid oral, day 28, read-out: tmax): 2 h
Cmax [2, 5]: 1790 ± 600 ng/mL
AUC(0-t) [2, 5]: 5220 ± 1810 ng·h/mL
Tmax ([2]; both sexes, human, po, 100 mg, 100 mg bid oral, day 0, read-out: tmax): 2.5 h
Cmax [2, 6]: 1860 ± 630 ng/mL
AUC(0-t) [2, 6]: 6010 ± 1890 ng·h/mL
Tmax ([2]; both sexes, human, po, 100 mg, 100 mg bid oral, day 28, read-out: tmax): 2 h
Cmax [2, 7]: 4210 ± 2160 ng/mL
AUC(0-t) [2, 7]: 11700 ± 3570 ng·h/mL
Tmax ([2]; both sexes, human, po, 200 mg, 200 mg bid oral, day 0, read-out: tmax): 3 h
Cmax [2, 8]: 4380 ± 3100 ng/mL
AUC(0-t) [2, 8]: 11100 ± 3020 ng·h/mL
Tmax ([2]; both sexes, human, po, 200 mg, 200 mg bid oral, day 28, read-out: tmax): 2 h
Cmax [2, 9]: 5540 ± 1800 ng/mL
AUC(0-t) [2, 9]: 17200 ± 5280 ng·h/mL
Tmax ([2]; both sexes, human, po, 400 mg, 400 mg qd oral, day 0, read-out: tmax): 3 h
Cmax [2, 10]: 4790 ± 2640 ng/mL
AUC(0-t) [2, 10]: 15300 ± 5590 ng·h/mL
Tmax ([2]; both sexes, human, po, 400 mg, 400 mg qd oral, day 28, read-out: tmax): 2 h
AUC ([2]; both sexes, human, 50 mg bid oral, day 28): 3660 ± 1290 ng·h/mL
AUC ([2]; both sexes, human, 100 mg bid oral, day 28): 8100 ± 2730 ng·h/mL
AUC ([2]; both sexes, human, 200 mg bid oral, day 28): 14000 ± 3220 ng·h/mL
AUC ([2]; both sexes, human, 400 mg qd oral, day 28): 25800 ± 9200 ng·h/mL
half-life ([2]; both sexes, human, blood plasma, oral administration): 3 to 6 h
VAS pain, change from baseline ([1]; 50 mg bid, day 7, 100 mm VAS): −19.5 (19.1)* mm
VAS pain, change from baseline ([1]; 50 mg bid, day 14, 100 mm VAS): −22.6 (20.9)* mm
VAS pain, change from baseline ([1]; 50 mg bid, day 28, 100 mm VAS): −28.6 mm
VAS pain, change from baseline ([1]; 100 mg bid, day 7, 100 mm VAS): −19.2 (21.6)* mm
VAS pain, change from baseline ([1]; 100 mg bid, day 14, 100 mm VAS): −21.2 (22.6)* mm
VAS pain, change from baseline ([1]; 100 mg bid, day 28, 100 mm VAS): −26.3 mm
VAS pain, change from baseline ([1]; 200 mg bid, day 7, 100 mm VAS): −22.0 (20.8)* mm
VAS pain, change from baseline ([1]; 200 mg bid, day 14, 100 mm VAS): −24.1 (22.8)* mm
VAS pain, change from baseline ([1]; 200 mg bid, day 28, 100 mm VAS): −29.6 mm
Pain relief of 400 mg once daily compared with 200 mg twice daily ([1]; 400 mg once daily): the same or better pain relief as 200 mg twice daily
Mean VAS scores compared with the other dose groups ([1]; 400 mg once daily, day 28, throughout the measurement period): best mean scores
VAS pain, change from baseline ([1]; 400 mg qd, day 7, 100 mm VAS): −26.0 (22.4)*a, b mm
VAS pain, change from baseline ([1]; 400 mg qd, day 14, 100 mm VAS): −27.5 (23.8)* mm
VAS pain, change from baseline ([1]; 400 mg qd, day 28, 100 mm VAS): −33.2 mm
Duration of effective anti-inflammatory treatment after a single oral dose ([1]; about 200 to about 1200 mg per day, immediate-release formulation, humans): 24 h
